In patent US8058475B2, “Substituted cyclohexylmethyl compounds” (Gruenenthal GmbH, priority 2005, dated 2011):
Counter-ions that a name gives are not always drawn. Like-named read-outs stand apart in the source and are kept apart here.

Legend:
[1] = target: T1, Serotonin (5HT) reuptake (Rattus norvegicus, UniProt P31652); assay: Serotonin (5HT) reuptake inhibition in rat brain synaptosomes (P2 fraction); assay type: biochemical; details: for inhibition at 10 µM: read-out: Serotonin reuptake, % inhibition [10 μM]
T1 construct: synaptosomes are freshly isolated from areas of rat brain; from tissue; host or cells: rat brain synaptosomes (P2 fraction)
Excerpt: (§1) Noradrenaline (NA) and Serotonin (5HT) Reuptake Inhibition
(§2) In order to be able to carry out these studies in vitro, synaptosomes are freshly isolated from areas of rat brain. A so-called “P2” fraction prepared by the method of Gray and Whittaker (E. G. Gray and V. P. Whittaker (1962) J. Anat. 76, 79-88) is used in each case. For the NA uptake, these vesicular particles are isolated from the hypothalamus of male rat brains.
(§3) A detailed description of the method will be found in the literature (M. Ch. Frink, H. H. Hennies, W. Englberger, M. Haurand and B. Wilffert (1996) Arzneim.-Forsch./Drug Res. 46 (III), 11, 1029-1036).

[2] = target: human μ-opiate receptor (Homo sapiens, UniProt P35372); assay: Affinity for the human μ-opiate receptor ([3H]-naloxone displacement, SPA, CHO-K1 membrane preparation); assay type: binding; details: for inhibition at 1 µM: read-out: μ-Opioid receptor, % inhibition [1 μM]; for Ki: read-out: μ-Opioid receptor, Ki
[3] = target: T2, Noradrenaline (NA) reuptake (Rattus norvegicus, UniProt Q63380); assay: Noradrenaline (NA) reuptake inhibition in rat brain synaptosomes (hypothalamus, P2 fraction); assay type: biochemical
T2 construct: synaptosomes are freshly isolated from areas of rat brain; from tissue; host or cells: rat hypothalamus synaptosomes (P2 fraction)
Excerpt: as §1, §2, §3

[4] = read-out: Na reuptake, % inhibition [10 μM]
[5] = 1 μM test substance, inhibition of specific [3H]-naloxone binding
[6] = read-out: NA reuptake, % inhibition [10 μM]

Chain of human μ-opiate receptor (P35372 whole entry): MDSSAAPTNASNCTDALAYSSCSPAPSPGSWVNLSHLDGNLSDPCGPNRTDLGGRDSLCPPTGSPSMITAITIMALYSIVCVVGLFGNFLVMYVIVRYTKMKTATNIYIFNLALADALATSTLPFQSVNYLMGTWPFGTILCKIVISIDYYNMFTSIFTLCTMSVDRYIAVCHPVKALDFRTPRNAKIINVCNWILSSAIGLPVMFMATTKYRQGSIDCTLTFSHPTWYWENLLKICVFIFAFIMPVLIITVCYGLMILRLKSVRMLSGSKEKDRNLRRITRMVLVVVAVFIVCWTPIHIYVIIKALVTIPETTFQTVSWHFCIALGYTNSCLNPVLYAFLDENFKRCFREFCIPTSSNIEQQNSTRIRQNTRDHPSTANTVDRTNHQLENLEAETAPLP
T1 sequence (P31652 whole entry): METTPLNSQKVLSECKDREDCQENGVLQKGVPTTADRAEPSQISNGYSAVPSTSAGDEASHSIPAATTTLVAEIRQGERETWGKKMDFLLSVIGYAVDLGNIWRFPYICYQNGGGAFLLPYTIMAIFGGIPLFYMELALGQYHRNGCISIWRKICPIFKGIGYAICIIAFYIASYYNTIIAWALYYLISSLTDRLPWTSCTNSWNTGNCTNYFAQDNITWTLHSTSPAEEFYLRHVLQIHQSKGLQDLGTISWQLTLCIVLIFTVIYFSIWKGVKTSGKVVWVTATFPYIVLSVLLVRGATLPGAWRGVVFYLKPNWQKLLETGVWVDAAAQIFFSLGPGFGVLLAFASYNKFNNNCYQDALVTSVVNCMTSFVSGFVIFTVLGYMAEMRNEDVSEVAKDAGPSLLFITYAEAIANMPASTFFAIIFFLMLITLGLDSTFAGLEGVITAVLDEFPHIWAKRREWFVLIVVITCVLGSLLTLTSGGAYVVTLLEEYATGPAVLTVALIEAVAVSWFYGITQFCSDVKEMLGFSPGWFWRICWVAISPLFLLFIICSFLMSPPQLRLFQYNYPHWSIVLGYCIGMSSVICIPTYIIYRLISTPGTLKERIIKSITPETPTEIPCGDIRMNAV
T2 sequence (Q63380 1-617): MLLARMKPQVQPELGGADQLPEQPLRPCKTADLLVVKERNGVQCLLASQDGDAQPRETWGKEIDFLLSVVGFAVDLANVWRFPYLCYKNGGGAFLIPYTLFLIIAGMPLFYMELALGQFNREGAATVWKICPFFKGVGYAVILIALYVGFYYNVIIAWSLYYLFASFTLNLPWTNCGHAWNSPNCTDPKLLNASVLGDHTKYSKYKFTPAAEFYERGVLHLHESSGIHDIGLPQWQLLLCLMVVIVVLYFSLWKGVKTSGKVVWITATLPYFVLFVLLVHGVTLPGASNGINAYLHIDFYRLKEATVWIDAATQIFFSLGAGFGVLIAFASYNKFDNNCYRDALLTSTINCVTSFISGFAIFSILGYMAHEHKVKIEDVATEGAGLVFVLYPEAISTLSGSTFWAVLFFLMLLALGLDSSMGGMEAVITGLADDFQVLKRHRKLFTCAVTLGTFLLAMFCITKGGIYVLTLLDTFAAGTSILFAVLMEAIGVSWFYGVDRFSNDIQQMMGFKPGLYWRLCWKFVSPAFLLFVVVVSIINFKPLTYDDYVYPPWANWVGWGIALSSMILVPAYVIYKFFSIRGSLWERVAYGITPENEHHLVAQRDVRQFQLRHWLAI

Compound	inhibition at 10 µM [1] [%]	Ki [2] [nM]	inhibition at 1 µM [2, 5] [%]	inhibition at 10 µM [3, 6] [%]	Ki [1] [nM]	further results
CCC(CC)C(=O)N(c1ccccc1)C1CCC(C(c2ccccc2)N(C)C)CC1 (stereo not shown) [compound 105, N-(4-((dimethylamino)(phenyl)methyl)cyclohexyl)-2-ethyl-N-phenylbutanamide hydrochloride]	85	20				inhibition at 1 µM [2]: 100%; inhibition at 10 µM [3, 4]: 88%
CN(C)C(c1ccccc1)C1CCC(NCCc2c[nH]c3ccccc23)CC1 (stereo not shown) [compound 83, N-(2-(1H-indol-3-yl)ethyl)-4-((dimethylamino)(phenyl)methyl)-cyclohexanamine hydrochloride]	93	7	95	100		
CC(=O)N(Cc1ccccc1)C1CCC(C(c2ccccc2)N(C)C)CC1 (stereo not shown) [compound 100, N-benzyl-N-(4-((dimethylamino)(phenyl)methyl)cyclohexyl)acetamide hydrochloride]	86	3.5			520	inhibition at 1 µM [2]: 100%; Ki [3]: 320 nM; inhibition at 10 µM [3, 4]: 91%
CN(C)C(c1ccccc1)C1CCC(NC(=O)Nc2ccc(Br)cc2)CC1 (stereo not shown) [compound 81, 1-(4-bromophenyl)-3-(4-((dimethylamino)(phenyl)methyl)cyclohexyl)urea]	97	33	95	97		
CN(C)C(CCc1ccccc1)C1CCC(CCCO)CC1 (stereo not shown) [compound 143, 3-[4-(1-dimethylamino-3-phenyl-propyl)-cyclohexyl]-propan-1-ol]	90		24	100		
CN(C)C(c1ccc(F)cc1)C1CCC(CO)CC1 (stereo not shown) [compound 118, {4-[dimethylamino-(4-fluorophenyl)-methyl]-cyclohexyl}-methanol]	90		33	91		
CN(C)C(c1ccc(F)cc1)C1CCC(CC=O)CC1 (stereo not shown) [compound 49, {4-[Dimethylamino-(4-fluorophenyl)-methyl]-cyclohexyl}-acetaldehyde]	93		34	97		
CN(C)C(c1cccc(F)c1)C1CCC(CN)CC1 (stereo not shown) [compound 36, [(4-aminomethyl-cyclohexyl)-(3-fluorophenyl)-methyl]-dimethylamine]	89		68	93	96	Ki [3]: 110 nM
COc1ccc(NC(=O)NC2CCC(C(c3ccccc3)N(C)C)CC2)cc1 (stereo not shown) [compound 82, 1-(4-((dimethylamino)(phenyl)methyl)cyclohexyl)-3-(4-methoxyphenyl)urea]	98	190	92	98	110	Ki [3]: 120 nM
CCOC(=O)C=C1CCC(C(c2ccccc2)N(C)C)CC1 (stereo not shown) [compound 123, [4-(dimethylamino-phenyl-methyl)-cyclohexylidene]-acetic acid ethyl ester]	92	190	75	66		
CN(C)C(c1ccccc1)C1CCC(NC(=O)Nc2ccccc2[N+](=O)[O-])CC1 (stereo not shown) [compound 76, 1-(4-((dimethylamino)(phenyl)methyl)cyclohexyl)-3-(2-nitrophenyl)urea hydrochloride]	84		61	100		
CN(C)C(c1cccc(F)c1)C1CCC(N)CC1 (stereo not shown) [compound 21, 4-[dimethylamino-(3-fluorophenyl)-methyl]-cyclohexylamine]	80		48	90		
CN(C)C(c1ccccc1)C1CCC(NS(=O)(=O)c2ccccc2)CC1 (stereo not shown) [compound 110, N-(4-((dimethylamino)(phenyl)methyl)cyclohexyl)benzenesulfonamide hydrochloride]	86			62		inhibition at 1 µM ([2]; 1 μM, sulfonamides (Table 17)): 93%; Ki ([2]; sulfonamides (Table 17)): 25 nM
CN(C)C(c1cccc(F)c1)C1CCC(CCN)CC1 (stereo not shown) [compound 54, 2-{4-[dimethylamino-(3-fluorophenyl)-methyl]-cyclohexyl}-ethylamine]	94		62	102		
CN(C)C(c1ccccc1)C1CCC(NC(=O)Nc2cccc3ccccc23)CC1 (stereo not shown) [compound 73, 1-(4-((dimethylamino)(phenyl)methyl)cyclohexyl)-3-(naphthalen-1-yl)urea]	90	46	96	94	61	Ki [3]: 180 nM
CN(C)C(c1ccccc1)C1CCC(CCN)CC1 (stereo not shown) [compound 48]						Serotonin reuptake, % inhibition [10 μM] ([1]; 10 μM, rat brain synaptosomes): 95%; μ-Opioid receptor, % inhibition [1 μM] [2, 5]: 67%; NA reuptake, % inhibition [10 μM] ([3]; 10 μM, rat brain synaptosomes (hypothalamus)): 100%
CN(C)C(c1ccc(F)cc1)C1CCC(O)CC1 (stereo not shown) [compound 112, 4-[dimethylamino-(4-fluorophenyl)-methyl]-cyclohexanol]	82		66	74		
CN(C)C(c1ccccc1)C1CCC(Nc2ccccc2)CC1 (stereo not shown) [compound 92, N-(4-((dimethylamino)(phenyl)methyl)cyclohexyl)benzenamine hydrochloride]	69	17	91	75		
CN(C)C(c1ccc(Cl)cc1)C1CCC(CN)CC1 (stereo not shown) [compound 39, [(4-aminomethyl-cyclohexyl)-(4-chlorophenyl)-methyl]-dimethylamine]	87		56	97		
CN(C)C(c1ccc(F)cc1)C1CCC(CCO)CC1 (stereo not shown) [compound 128, 2-{4-[dimethylamino-(4-fluorophenyl)-methyl]-cyclohexyl}-ethanol]	84		18	88		
CN(C)C(c1ccc(Cl)cc1)C1CCC(CO)CC1 (stereo not shown) [compound 120, {4-[(4-chlorophenyl)-dimethylamino-methyl]-cyclohexyl}-methanol]	79		51	93		
CCOC(=O)CC1CCC(C(c2ccc(F)cc2)N(C)C)CC1 (stereo not shown) [compound 127, {4-[dimethylamino-(4-fluorophenyl)-methyl]-cyclohexyl}-acetic acid ethyl ester]	90		34	89		
CCC(CC)C(=O)N(Cc1ccccc1)C1CCC(C(c2ccccc2)N(C)C)CC1 (stereo not shown) [compound 101, N-benzyl-N-(4-((dimethylamino)(phenyl)methyl)cyclohexyl)-2-ethylbutanamide hydrochloride]	81	2.3			880	inhibition at 1 µM [2]: 101%; Ki [3]: 670 nM; inhibition at 10 µM [3, 4]: 86%
CCOC(=O)C=CC1CCC(C(c2ccccc2)N(C)C)CC1 (stereo not shown) [compound 132, 3-[4-(dimethylamino-phenyl-methyl)-cyclohexyl]-acrylic acid ethyl ester]	86	120	91	84	420	Ki [3]: 590 nM
CN(C)C(c1ccccc1)C1CCC(NC(=O)Nc2cccc(C(F)(F)F)c2)CC1 (stereo not shown) [compound 75, 1-(4-((dimethylamino)(phenyl)methyl)cyclohexyl)-3-(3-(trifluoromethyl)-phenyl)urea hydrochloride]	80	98	88	88	13	Ki [3]: 550 nM
CCOC(=O)CCC1CCC(C(c2ccccc2)N(C)C)CC1 (stereo not shown) [compound 133, 3-[4-(dimethylamino-phenyl-methyl)-cyclohexyl]-propionic acid ethyl ester]	89	96	81	87	99	
CN(C)C(c1ccccc1)C1CCC(NC(=O)Nc2cccc(Br)c2)CC1 (stereo not shown) [compound 77, 1-(3-bromophenyl)-3-(4-((dimethylamino)(phenyl)methyl)cyclohexyl)urea hydrochloride]	84	78	88	93		
CN(C)C(c1ccccc1)C1CCC(OCc2ccc(F)cc2)CC1 (stereo not shown) [compound 145, 4-(4-fluorobenzyloxy)cyclohexyl)-N,N-dimethyl(phenyl)methanamine hydrochloride]	83	310	73	84	290	
CN(C)C(c1ccccc1)C1CCC(N(Cc2ccccc2)C(=O)c2ccc(F)cc2)CC1 (stereo not shown) [compound 103, N-benzyl-N-(4-((dimethylamino)(phenyl)methyl)cyclohexyl)-4-fluoro-benzamide hydrochloride]	93	8.8			560	inhibition at 1 µM [2]: 99%; Ki [3]: 400 nM; inhibition at 10 µM [3, 4]: 87%
